The values below are quoted from earlier work in patent publication US7279279B2, “Compositions and methods for determining anti-viral drug susceptibility and resistance and anti-viral drug screening” (Monogram Biosciences, Inc., priority 1996, dated 2007).

This data set concerns HIV. Conditions: background statement on drug treatment of HIV; no test conditions given.

As to `Cc1cn([C@H]2C[C@H](N=[N+]=[N-])[C@@H](CO)O2)c(=O)[nH]c1=O` [AZT, zidovudine], the reduce virus replication result is “about 90%”.
